Assay results as given in patent US10933051B2, “Carbapenem compounds and compositions for the treatment of bacterial infections” (FOB Synthesis, Inc., priority 2017, dated 2021).

Key:
Assay type in all cases: cell-based
Set-up in all cases: unit not given here
[1] = tested on: A. baumannii FSAb-065; assay: Antimicrobial Susceptibility Test (CLSI), Test Example 2; conditions: Table 4; strain produces OXA-2, VIM-2
Description: (§1) Antimicrobial Susceptibility Test was performed by the CLSI (Clinical and Laboratory Standards Institute) methods. The agar dilution method for determining antimicrobial susceptibility was carried out using Mueller Hinton-II agar and the amount of inoculation was 10^4CFU/spot. Broth dilution tests were performed using the Mueller Hinton-II broth. All assays were run with the indicated control strains, available from the ATCC (American Type Culture Collection, Rockville, Md.).

[2] = tested on: A. baumannii FSAb-029; assay: as above; conditions: Table 4; strain produces OXA-2, IMP-1
Description: as §1

[3] = tested on: K. pneumoniae ATCC BAA-1904; assay: as above; conditions: Table 4; strain produces KPC-3
Description: as §1

[4] = tested on: E. coli FSEco-054; assay: as above; conditions: Table 4; strain produces ESBL
Description: as §1

[5] = tested on: P. aeruginosa FSPa-121; assay: as above; conditions: Table 4; strain produces OXA-17
Description: as §1

[6] = tested on: A. baumannii FSAb-039; assay: as above; conditions: Table 4; strain produces OXA-51
Description: as §1

[7] = tested on: A. baumannii FSAb-056; assay: as above; conditions: Table 4; strain produces OXA-23, OXA-51
Description: as §1

[8] = tested on: K. pneumoniae ATCC10031; assay: MIC by CLSI agar/broth dilution, Test Example 1; conditions: Table 2
Description: (§2) The MIC (minimum inhibitory concentration) was determined by the CLSI (Clinical and Laboratory Standards Institute) methods. The agar dilution method for determining antimicrobial susceptibility was carried out using Mueller Hinton-II agar and the amount of inoculation was 10^4 CFU/spot. Broth dilution tests were performed using Mueller Hinton-II broth. All assays were run with the indicated control strains, available from the ATCC (American Type Culture Collection, Rockville, Md.).

[9] = tested on: E. coli ATCC10536; assay: MIC by CLSI agar/broth dilution, Test Example 1; conditions: Table 2
Description: as §2

[10] = tested on: A. baumannii 4010; assay: MIC by CLSI agar/broth dilution, Test Example 1; conditions: Table 2; strain produces OXA-51
Description: as §2

[11] = tested on: P. aeruginosa ATCC27853; assay: MIC by CLSI agar/broth dilution, Test Example 1; conditions: Table 2
Description: as §2

[12] = tested on: A. baumannii KABA 01-33; assay: MIC by CLSI agar/broth dilution, Test Example 1; conditions: Table 2; strain produces OXA-2, VIM-2
Description: as §2

MIC (minimum inhibitory concentration), K. pneumoniae ATCC10031 [8] | MIC (minimum inhibitory concentration), E. coil ATCC10536 [9] | MIC (minimum inhibitory concentration), A. baumannii 4010 [10] | MIC (minimum inhibitory concentration), P. aeruginosa ATCC27853 [11] | MIC (minimum inhibitory concentration), A. baumannii KABA 01-33 [12] | SMILES | antimicrobial susceptibility, A. baumannii FSAb-065 [1] | antimicrobial susceptibility, A. baumannii FSAb-029 [2] | antimicrobial susceptibility, K. pneumoniae BAA-1904 [3] | antimicrobial susceptibility, E. coil FSEco-054 [4] | antimicrobial susceptibility, P. aeruginosa FSPa-121 [5] | antimicrobial susceptibility, A. baumannii FSAb-039 [6] | antimicrobial susceptibility, A. baumannii FSAb-056 [7]
2 | 8 | >32 | >32 | 16 | C[C@@H](O)[C@H]1C(=O)N2C(C(=O)O)=C(CN(C)CCNC(=O)CCc3ccc(O)c(O)c3Cl)[C@H](C)[C@H]12 [Compound 23] |  |  |  |  |  |  | 
0.25 | 0.5 | 16 | 32 | 8 | C[C@@H](O)[C@H]1C(=O)N2C(C(=O)O)=C(CN(C)CCNC(=O)c3cc(=O)c(O)cn3O)[C@H](C)[C@H]12 [Compound 25] |  |  |  |  |  |  | 
0.13 | 0.5 | 8 | 8 | 2 | C[C@@H](O)[C@H]1C(=O)N2C(C(=O)O)=C(CN(C)CC(=O)NCc3cc(=O)c(O)cn3O)[C@H](C)[C@H]12 [Compound 26] | 4 | 16 | 32 | 4 | 4 | 16 | 4
0.063 | 0.063 | 8 | 16 | 16 | C[C@@H](O)[C@H]1C(=O)N2C(C(=O)O)=C(CN(C)CC(=O)NCc3cc(=O)c(O)co3)[C@H](C)[C@H]12 [Compound 27] |  |  |  |  |  |  | 

More lines, now with the values behind:

SMILES | MIC (minimum inhibitory concentration), K. pneumoniae ATCC10031 [8] | MIC (minimum inhibitory concentration), E. coil ATCC10536 [9] | MIC (minimum inhibitory concentration), A. baumannii 4010 [10] | MIC (minimum inhibitory concentration), P. aeruginosa ATCC27853 [11] | MIC (minimum inhibitory concentration), A. baumannii KABA 01-33 [12] | antimicrobial susceptibility, A. baumannii FSAb-065 [1] | antimicrobial susceptibility, A. baumannii FSAb-029 [2] | antimicrobial susceptibility, K. pneumoniae BAA-1904 [3] | antimicrobial susceptibility, E. coil FSEco-054 [4] | antimicrobial susceptibility, P. aeruginosa FSPa-121 [5] | antimicrobial susceptibility, A. baumannii FSAb-039 [6] | antimicrobial susceptibility, A. baumannii FSAb-056 [7]
C[C@@H](O)[C@H]1C(=O)N2C(C(=O)O)=C(CN(C)CCNC(=O)c3ccc(O)c(O)c3Cl)[C@H](C)[C@H]12 [Compound 1] | 0.063 | 0.5 | 2 | 4 | 1 | 1 | 1 | 8 | 1 | 2 | 2 | 2
C[C@@H](O)[C@H]1C(=O)N2C(C(=O)O)=C(CN(C)CCNC(=O)c3cc(O)c(O)cc3Cl)[C@H](C)[C@H]12 [Compound 5] | 0.13 | 1 | 8 | 16 | 2 | 8 | 8 | 32 | 4 | 8 | 8 | 8
C[C@@H](O)[C@H]1C(=O)N2C(C(=O)O)=C(CN(C)CCNC(=O)c3cc(O)c(O)c(Cl)c3)[C@H](C)[C@H]12 [Compound 6] | 0.063 | 0.5 | 4 | 8 | 1 | 2 | 2 | 32 | 1 | 2 | 4 | 2
C[C@@H](O)[C@H]1C(=O)N2C(C(=O)O)=C(CN(C)CC(=O)NCCNC(=O)c3ccc(O)c(O)c3Cl)[C@H](C)[C@H]12 [Compound 19] | 0.063 | 0.5 | 4 | 4 | 1 | 8 | 8 | 8 | 8 | 4 | 8 | 8
